Laboratory results: patent US20240132484A1, “BROAD SPECTRUM ANTIVIRAL COMPOUNDS TARGETING THE SKI COMPLEX” (priority 2020, published 2024)
Where “and” joins values, the source holds several entries; their conditions need not be identical. Equal values may be shown once. Read-outs that look alike come from different tables or passages of the source.

Assays:
[1] = system: SARS2; type: cell-based, SARS-CoV-2; conditions: for Infection Data, Percentage Infection Relative to Appropriate DMSO Control with Avg Background Subtraction: duplicate wells, listed as SICLS62; for Infection Data, Average, Mean (Percentage Infection Relative to Appropriate DMSO Control): average of Exp 1 and Exp 2, n=4; for Percentage Inhibition Average 1 μM / Screening data (Relative infection to DMSO controls) Average 1 μM: SARS2, 1 μM; for Screening data (Relative infection to DMSO controls) Average 1 μM / Screening data (Relative infection to DMSO controls) Average 5 μM / Screening data (Relative infection to DMSO controls) Average 10 μM / Screening data (Relative infection to DMSO controls) Average 25 μM / Screening data (Relative infection to DMSO controls) Average 50 μM / Average (relative infection to DMSO over the 5 tested concentrations): 100=DMSO control; for Percentage Inhibition Average 5 μM / Screening data (Relative infection to DMSO controls) Average 5 μM: SARS2, 5 μM; for Percentage Inhibition Average 10 μM / Screening data (Relative infection to DMSO controls) Average 10 μM: SARS2, 10 μM; for Percentage Inhibition Average 25 μM / Screening data (Relative infection to DMSO controls) Average 25 μM: SARS2, 25 μM; for Percentage Inhibition Average 50 μM / Screening data (Relative infection to DMSO controls) Average 50 μM: SARS2, 50 μM; for Average (relative infection to DMSO over the 5 tested concentrations): SARS2, average over 1 to 50 uM; for Infection Data, Average, Mean percentage infection relative to DMSO control: Average of Exp 1 (SMW491) and Exp 2 (SMW492); for Infection Data, Percentage Infection Relative to Appropriate DMSO Control: single well, avg background subtraction
[2] = system: cells (nuclei count); conditions: for Toxicity Data, Average, Mean (percentage relative to appropriate DMSO control): average of Exp 1 and Exp 2, n=4; for Relative cell count to DMSO controls, Average 1 μM / Relative cell count to DMSO controls, Average 5 μM / Relative cell count to DMSO controls, Average 10 μM / Relative cell count to DMSO controls, Average 25 μM / Relative cell count to DMSO controls, Average 50 μM: toxicity data, 100=DMSO control; for Relative cell count to DMSO controls, Average (for correlation analysis): average value over the 5 tested concentrations (1 to 50 uM); for Toxicity Data, Average, Mean percentage relative to DMSO control: Average of Exp 1 (SMW491) and Exp 2 (SMW492); for Toxicity Data, Percentage Relative to Appropriate DMSO Control: single well

CC1=C(C(=O)NCC2CCC2)C(c2cccs2)NC(=O)N1 (centres unmarked) [SILCS62]
Infection Data, Percentage Infection Relative to Appropriate DMSO Control with Avg Background Subtraction ([1]; 1 uM, Exp 1 (SMW506)): 84.10% and 102.05%
Infection Data, Percentage Infection Relative to Appropriate DMSO Control with Avg Background Subtraction ([1]; 1 uM, Exp 2 (SMW492), SILCS 61-66 and 67-72 plates): 50.01% and 36.38%
Infection Data, Average, Mean (Percentage Infection Relative to Appropriate DMSO Control) ([1]; 1 uM): 68.14%
Infection Data, Percentage Infection Relative to Appropriate DMSO Control with Avg Background Subtraction ([1]; 5 uM, Exp 1 (SMW506)): 45.05% and 53.24%
Infection Data, Percentage Infection Relative to Appropriate DMSO Control with Avg Background Subtraction ([1]; 5 uM, Exp 2 (SMW492), SILCS 61-66 and 67-72 plates): 9.05% and 14.15%
Infection Data, Average, Mean (Percentage Infection Relative to Appropriate DMSO Control) ([1]; 5 uM): 30.37%
Infection Data, Percentage Infection Relative to Appropriate DMSO Control with Avg Background Subtraction ([1]; 10 uM, Exp 1 (SMW506)): 84.98% and 89.35%
Infection Data, Percentage Infection Relative to Appropriate DMSO Control with Avg Background Subtraction ([1]; 10 uM, Exp 2 (SMW492), SILCS 61-66 and 67-72 plates): 5.57% and 5.50%
Infection Data, Average, Mean (Percentage Infection Relative to Appropriate DMSO Control) ([1]; 10 uM): 46.35%
Infection Data, Percentage Infection Relative to Appropriate DMSO Control with Avg Background Subtraction ([1]; 25 uM, Exp 1 (SMW506)): 83.54% and 119.74%
Infection Data, Percentage Infection Relative to Appropriate DMSO Control with Avg Background Subtraction ([1]; 25 uM, Exp 2 (SMW492), SILCS 61-66 and 67-72 plates): 1.62% and 0.75%
Infection Data, Average, Mean (Percentage Infection Relative to Appropriate DMSO Control) ([1]; 25 uM): 51.41%
Infection Data, Percentage Infection Relative to Appropriate DMSO Control with Avg Background Subtraction ([1]; 50 uM, Exp 2 (SMW492), SILCS 61-66 and 67-72 plates): −0.82% and 2.34%
Infection Data, Average, Mean (Percentage Infection Relative to Appropriate DMSO Control) ([1]; 50 uM): 23.88%
Percentage Inhibition Average 1 μM [1]: 31.86%
Screening data (Relative infection to DMSO controls) Average 1 μM [1]: 68.14
Percentage Inhibition Average 5 μM [1]: 69.63%
Screening data (Relative infection to DMSO controls) Average 5 μM [1]: 30.37
Percentage Inhibition Average 10 μM [1]: 53.65%
Screening data (Relative infection to DMSO controls) Average 10 μM [1]: 46.35
Percentage Inhibition Average 25 μM [1]: 48.59%
Screening data (Relative infection to DMSO controls) Average 25 μM [1]: 51.41
Percentage Inhibition Average 50 μM [1]: 76.12%
Screening data (Relative infection to DMSO controls) Average 50 μM [1]: 23.88
Average (relative infection to DMSO over the 5 tested concentrations) [1]: 44.03
Toxicity Data, Average, Mean (percentage relative to appropriate DMSO control) ([2]; 1 uM): 112.47%
Relative cell count to DMSO controls, Average 1 μM [2]: 112.47
Toxicity Data, Average, Mean (percentage relative to appropriate DMSO control) ([2]; 5 uM): 123.92%
Relative cell count to DMSO controls, Average 5 μM [2]: 123.92
Toxicity Data, Average, Mean (percentage relative to appropriate DMSO control) ([2]; 10 uM): 116.29%
Relative cell count to DMSO controls, Average 10 μM [2]: 116.29
Toxicity Data, Average, Mean (percentage relative to appropriate DMSO control) ([2]; 25 uM): 106.51%
Relative cell count to DMSO controls, Average 25 μM [2]: 106.51
Toxicity Data, Average, Mean (percentage relative to appropriate DMSO control) ([2]; 50 uM): 98.08%
Relative cell count to DMSO controls, Average 50 μM [2]: 98.08
Relative cell count to DMSO controls, Average (for correlation analysis) [2]: 111.45

COc1ccc(C2NC(=O)NC(C)=C2C(=O)NCc2ccccc2)cc1OC (centres unmarked) [SILCS48]
Infection Data, Average, Mean percentage infection relative to DMSO control ([1]; n=4, 1 uM): 71.69%
Infection Data, Average, Mean percentage infection relative to DMSO control ([1]; n=4, 5 uM): 75.19%
Infection Data, Average, Mean percentage infection relative to DMSO control ([1]; n=4, 10 uM): 85.09%
Infection Data, Average, Mean percentage infection relative to DMSO control ([1]; n=4, 25 uM): 100.34%
Infection Data, Average, Mean percentage infection relative to DMSO control ([1]; n=4, 50 uM): 160.04%
Infection Data, Percentage Infection Relative to Appropriate DMSO Control ([1]; Exp 1 (SMW491), 1 uM): 87.03% and 82.70%
Infection Data, Percentage Infection Relative to Appropriate DMSO Control ([1]; Exp 1 (SMW491), 5 uM): 70.35% and 83.94%
Infection Data, Percentage Infection Relative to Appropriate DMSO Control ([1]; Exp 1 (SMW491), 10 uM): 96.64% and 110.53%
Infection Data, Percentage Infection Relative to Appropriate DMSO Control ([1]; Exp 1 (SMW491), 25 uM): 102.87% and 119.89%
Infection Data, Percentage Infection Relative to Appropriate DMSO Control ([1]; Exp 1 (SMW491), 50 uM): 159.63% and 145.37%
Infection Data, Percentage Infection Relative to Appropriate DMSO Control ([1]; Exp 2 (SMW492), 1 uM): 59.24% and 57.80%
Infection Data, Percentage Infection Relative to Appropriate DMSO Control ([1]; Exp 2 (SMW492), 5 uM): 84.51% and 61.96%
Infection Data, Percentage Infection Relative to Appropriate DMSO Control ([1]; Exp 2 (SMW492), 10 uM): 49.42% and 83.79%
Infection Data, Percentage Infection Relative to Appropriate DMSO Control ([1]; Exp 2 (SMW492), 25 uM): 97.57% and 81.03%
Infection Data, Percentage Infection Relative to Appropriate DMSO Control ([1]; Exp 2 (SMW492), 50 uM): 177.82% and 157.32%
Percentage Inhibition Average 1 μM [1]: 28.31%
Screening data (Relative infection to DMSO controls) Average 1 μM [1]: 71.69
Percentage Inhibition Average 5 μM [1]: 24.81%
Screening data (Relative infection to DMSO controls) Average 5 μM [1]: 75.19
Percentage Inhibition Average 10 μM [1]: 14.91%
Screening data (Relative infection to DMSO controls) Average 10 μM [1]: 85.09
Percentage Inhibition Average 25 μM [1]: −0.34%
Screening data (Relative infection to DMSO controls) Average 25 μM [1]: 100.34
Percentage Inhibition Average 50 μM [1]: −60.04%
Screening data (Relative infection to DMSO controls) Average 50 μM [1]: 160.04
Average (relative infection to DMSO over the 5 tested concentrations) [1]: 98.47
Relative cell count to DMSO controls, Average 1 μM [2]: 119.19
Relative cell count to DMSO controls, Average 5 μM [2]: 115.84
Relative cell count to DMSO controls, Average 10 μM [2]: 107.43
Relative cell count to DMSO controls, Average 25 μM [2]: 102.04
Relative cell count to DMSO controls, Average 50 μM [2]: 77.81
Toxicity Data, Average, Mean percentage relative to DMSO control ([2]; n=4, 1 uM): 119.19%
Toxicity Data, Average, Mean percentage relative to DMSO control ([2]; n=4, 5 uM): 115.84%
Toxicity Data, Average, Mean percentage relative to DMSO control ([2]; n=4, 10 uM): 107.43%
Toxicity Data, Average, Mean percentage relative to DMSO control ([2]; n=4, 25 uM): 102.04%
Toxicity Data, Average, Mean percentage relative to DMSO control ([2]; n=4, 50 uM): 77.81%
Toxicity Data, Percentage Relative to Appropriate DMSO Control ([2]; Exp 1 (SMW491), 1 uM): 112% and 102%
Toxicity Data, Percentage Relative to Appropriate DMSO Control ([2]; Exp 1 (SMW491), 5 uM): 108% and 106%
Toxicity Data, Percentage Relative to Appropriate DMSO Control ([2]; Exp 1 (SMW491), 10 uM): 86% and 88%
Toxicity Data, Percentage Relative to Appropriate DMSO Control ([2]; Exp 1 (SMW491), 25 uM): 95% and 88%
Toxicity Data, Percentage Relative to Appropriate DMSO Control ([2]; Exp 1 (SMW491), 50 uM): 79% and 77%
Toxicity Data, Percentage Relative to Appropriate DMSO Control ([2]; Exp 2 (SMW492), 1 uM): 130% and 132%
Toxicity Data, Percentage Relative to Appropriate DMSO Control ([2]; Exp 2 (SMW492), 5 uM): 115% and 135%
Toxicity Data, Percentage Relative to Appropriate DMSO Control ([2]; Exp 2 (SMW492), 10 uM): 135% and 121%
Toxicity Data, Percentage Relative to Appropriate DMSO Control ([2]; Exp 2 (SMW492), 25 uM): 109% and 116%
Toxicity Data, Percentage Relative to Appropriate DMSO Control ([2]; Exp 2 (SMW492), 50 uM): 81% and 75%
Relative cell count to DMSO controls, Average (for correlation analysis) [2]: 104.46
